Experimental data from publication PMC12029662, “Cytotoxicity Comparison of ^99mTc-Labeled Peptide Antagonist and Agonist Targeting the SSTR2 Receptor in AR42J Cells” (Molecules, 2025).
Like-named read-outs stand apart in the source and are kept apart here. Positions of bridges follow the written chain, without caps; N, C: chain ends. Non-standard residues stand in square brackets, D forms with d. dPhe(4-NHCONH2) = NC(=O)Nc1ccc(C[C@@H](N)C(=O)O)cc1; Phe(4-Cl) = N[C@@H](Cc1ccc(Cl)cc1)C(=O)O; N4 = N4 chelator for 99mTc

Key:
SSTR2 = target: T1, SSTR2 (Rattus norvegicus, UniProt P30680); experiment: Saturation binding affinity assay on AR-42-J cells; settings: for Specific binding on AR42J cells, antagonist compared with agonist: specific = total minus nonspecific binding, Figure 2
T1 construct: AR-42-J cells were seeded in 6-well plates; host or cells: AR-42-J (AR42J) rat pancreatic tumour cells, intact, no transfection described
T1 sequence (P30680 whole entry): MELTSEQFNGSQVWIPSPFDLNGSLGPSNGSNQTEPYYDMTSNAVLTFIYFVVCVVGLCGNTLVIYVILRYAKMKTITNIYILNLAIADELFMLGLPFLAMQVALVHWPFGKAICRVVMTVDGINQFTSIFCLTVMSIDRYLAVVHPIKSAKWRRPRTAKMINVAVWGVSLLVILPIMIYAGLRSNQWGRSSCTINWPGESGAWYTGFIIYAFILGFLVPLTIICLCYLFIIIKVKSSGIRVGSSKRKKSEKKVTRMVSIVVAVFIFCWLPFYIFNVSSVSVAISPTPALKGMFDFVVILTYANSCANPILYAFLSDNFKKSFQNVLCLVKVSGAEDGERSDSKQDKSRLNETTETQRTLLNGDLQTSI
Description: Figure 2 illustrates the relationship between specific binding and the concentration of the radioconjugates. In Supplementary Materials Figure S1, we included experimental data on total binding and non-specific binding in the presence of a 2000-fold excess of octreotide, which allowed us to determine specific binding.
Following incubation, the cells were washed with PBS, collected into tubes and then lysed twice using 800 μL of 1 M NaOH (for 12-well plate) and 1.5 mL of 1 M NaOH (for 6-well plates). The lysates were collected in separate tubes and radioactivity was measured using Wizard2 gamma counter, PerkinElmer, Waltham, MA, USA. The lysates were transferred to separate tubes and radioactivity was quantified using Wizard2 gamma counter.

AR42J cells [1] = experiment: Cytotoxicity studies (MTS assay)
Description: The properties of agonist octreotide conjugates labeled with the radionuclide ^111In have been studied in several works, primarily for imaging but also for Auger electron therapy. The ^111In not only emits gamma quanta but also produces 7.4 Auger electrons. […] In a few works, Maecke et al. also studied ^111In radioconjugates with SSTR receptor antagonists, but these studies were focused on tumor imaging and the therapeutic effect was not investigated. […] They are easily repairable and the cells could continue to divide.
Figure 4 Cytotoxicity of ^99mTc-labeled SSTR2 receptor agonist TEKTROTYD (left graph) and antagonist TECANT-1 (right graph) for AR42J cells. The data results are expressed in mean ± standard deviation. One-way ANOVA analysis was used for multiple group comparisons, followed by Tukey’s test.
A cytotoxicity assay was performed using the AR42J cell line. A total of 10^4 cells were seeded in 96-well plate and incubated overnight at 37 °C in a 5% CO2 atmosphere. The following day, the medium was removed and the cells were treated with radiocompounds at concentrations of 100, 50, 25, 12.5 MBq/mL The cells were then incubated for 24, 48, and 72 h. At each specified time point, 20 µL of MTS reagent was added to cells and incubated for 2 h. Absorbance at 490 nm was measured to estimate the percentage of cell metabolic activity. […] The average absorbance of these control wells was subtracted from the absorbance of wells containing treated cells.

[2] = reported in multiple studies; cited from earlier work
AR42J cells [3] = experiment: Internalization assay (membrane-bound vs internalized fraction); assay type: cell-based, rat; settings: Figure 3
Description: Briefly, AR42J cells (7 × 10^5 cells/well) were seeded in 6-well plates and incubated for 2 days. Following this incubation, the cells were washed twice with cold PBS and then treated with 5 nM of tested compounds. To avoid internalization, the cells were incubated at 4 °C for 1 h. Non-specific binding was assessed by adding a 1000-fold molar excess of unlabeled octreotide acetate. After incubation, unbound fraction was collected in tubes, and the cells were washed twice with 1 mL of cold PBS. Fresh medium was then added, and the cells were incubated at 37 °C for up to 24 h. At each time interval, the second medium portion was collected, and cells were washed twice with 1 mL of PBS. Next, the membrane-bound fraction was collected using 0.05 M glycine–HCl buffer (pH 2.8). Finally, the internalized fraction was obtained by lysing the cells with 1.5 mL of 1 M NaOH.

[4] = AR42J cells, MTS, 12.5–100 MBq/mL, Figure 4

N4-p-Cl-Phe-cyclo(D-Cys-Tyr-DAph(Cbm)-Lys-Thr-Cys)-D-Tyr-NH2 (disulfide) [TECANT-1]
Specific binding on AR42J cells, antagonist compared with agonist (SSTR2): significantly greater
Cell viability after 72 h compared with earlier time points (AR42J cells [1]; [4]): no such effect was observed

^99mTc-EDDA/HYNIC-3Tyr-octreotide (disulfide) [^99mTc-TEKTROTYD]
Cytotoxicity in words (AR42J cells [1]; AR42J cells, MTS assay): slight cytotoxicity
Cell viability after 72 h compared with earlier time points (AR42J cells [1]; [4]): significant increase in cell viability observed after 72 h
Stability in biological fluids, including human serum [2]: high stability

^99mTc-N4-p-Cl-Phe-cyclo(D-Cys-Tyr-D-4-amino-Phe(carbamoyl)-Lys-Thr-Cys)D-Tyr- NH2 (disulfide) ({99mTc-N4}-[Phe(4-Cl)][dC]Y[dPhe(4-NHCONH2)]KTC[dY]-NH2; disulfide 2-7; also: 99mTc complex via N4 chelator) [^99mTc-TECANT-1]
Kd (SSTR2; saturation curves, AR42J cells, 2 h incubation with 0.004–20 nM radiopeptide, non-specific binding with 2000-fold excess of octreotide, gamma counter): 1.5 nM

^99mTc-N4-p-Cl-Phe-cyclo(D-Cys-Tyr-D-4-amino-Phe(carbamoyl)-Lys-Thr-Cys)D-Tyr- NH2 (disulfide) [^99mTc-TECANT-1]
Specific binding on AR42J cells, antagonist compared with agonist (SSTR2): greater binding
Cellular localization in words (AR42J cells [3]): most of the radioconjugate is accumulated in the cell membrane
Cytotoxicity in words (AR42J cells [1]): significantly enhanced cytotoxic effect
Toxicity of antagonist relative to agonist (AR42J cells [1]; AR42J cells, MTS, 12.5–100 MBq/mL, 24, 48, 72 h, Figure 4): two to three times higher
